This passage reports T/C results from PubChem BioAssay AID256 (DTP/NCI, 2004).

Where “and” joins values, the source holds several entries; their conditions need not be identical. Equal values may be shown once. Toxic doses and inconclusive results are not listed.

This assay concerns CD2F1 mice, L1210 leukemia ip, survival T/C. Kind of assay: NCI In Vivo Anticancer Drug Screen. Data for tumor model L1210 Leukemia (intraperitoneal) in CD2F1 (CDF1) mice. The conditions noted are these: higher = longer survival. A digest of the protocol:
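Each value reflects a quotient of treated over vehicle control outcomes in mice with a transplanted tumor.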

Where [1] appears, read: endpoint: mean survival time, dose: 100.0 mg/kg/injection, schedule: Q04DX003 (ip), vehicle: saline with Tween-80.
The mark [2] stands for this setting: endpoint: mean survival time, dose: 100.0 mg/kg/injection, schedule: Q04DX002 (ip), vehicle: saline with Tween-80.
[3] abbreviates: endpoint: mean survival time, dose: 200.0 mg/kg/injection, schedule: Q04DX002 (ip), vehicle: saline with Tween-80.
The mark [4] stands for this setting: endpoint: mean survival time, dose: 400.0 mg/kg/injection, schedule: Q04DX002 (ip), vehicle: saline with Tween-80.
Setting [5] is: endpoint: mean survival time, dose: 100.0 mg/kg/injection, schedule: Q01DX009 (ip), vehicle: saline sonified.
The mark [6] stands for this setting: endpoint: mean survival time, dose: 200.0 mg/kg/injection, schedule: Q04DX003 (ip), vehicle: saline with Tween-80.
Setting [7] is: endpoint: mean survival time, dose: 400.0 mg/kg/injection, schedule: Q04DX003 (ip), vehicle: saline with Tween-80.
Where [8] appears, read: endpoint: mean survival time, dose: 50.0 mg/kg/injection, schedule: Q01DX009 (ip), vehicle: saline with Tween-80.
Setting [9] is: endpoint: mean survival time, dose: 100.0 mg/kg/injection, schedule: Q01DX009 (ip), vehicle: saline with Tween-80.
Where [10] appears, read: endpoint: mean survival time, dose: 25.0 mg/kg/injection, schedule: Q04DX003 (ip), vehicle: saline.
Where [11] appears, read: endpoint: mean survival time, dose: 50.0 mg/kg/injection, schedule: Q04DX003 (ip), vehicle: saline.
Where [12] appears, read: endpoint: mean survival time, dose: 100.0 mg/kg/injection, schedule: Q04DX003 (ip), vehicle: saline.

For the compound `NC1CCCCC1N.O=C([O-])c1ccc(N=Nc2cccc([N+](=O)[O-])c2)cc1O.O=C([O-])c1ccc(N=Nc2cccc([N+](=O)[O-])c2)cc1O.[Pt+4]`, the T/C by setting is: (endpoint: median survival time, dose: 3.12 mg/kg/injection, schedule: Q04DX003 (ip), vehicle: saline with Tween-80) 150 % of control and 301 % of control; (endpoint: median survival time, dose: 6.25 mg/kg/injection, schedule: Q04DX003 (ip), vehicle: saline with Tween-80) 190 % of control and 247 % of control; (endpoint: median survival time, dose: 12.5 mg/kg/injection, schedule: Q04DX003 (ip), vehicle: saline with Tween-80) 361 % of control and 375 % of control; (endpoint: median survival time, dose: 50.0 mg/kg/injection, schedule: Q04DX003 (ip), vehicle: saline with Tween-80) 89 % of control.
For `[Cl][Pt+2][Cl].[NH-]C(Cc1ccc(O)cc1)C(=O)O.[NH-]C(Cc1ccc(O)cc1)C(=O)O` (stereo not drawn), the T/C (endpoint: mean survival time, dose: 12.5 mg/kg/injection, schedule: Q04DX003 (ip), vehicle: saline with Tween-80) was 95 % of control; the T/C (endpoint: mean survival time, dose: 50.0 mg/kg/injection, schedule: Q04DX003 (ip), vehicle: saline with Tween-80) is 97 % of control; the T/C under setting [1] was 95 % of control.
As to `OCC(CO)(CO)CO`, the T/C by setting is: (endpoint: mean survival time, dose: 50.0 mg/kg/injection, schedule: Q01DX009 (ip), vehicle: Klucel (hydroxypropylcellulose) (HPC)) 93 % of control; (endpoint: mean survival time, dose: 100.0 mg/kg/injection, schedule: Q01DX009 (ip), vehicle: Klucel (hydroxypropylcellulose) (HPC)) 93 % of control; (endpoint: mean survival time, dose: 200.0 mg/kg/injection, schedule: Q01DX009 (ip), vehicle: Klucel (hydroxypropylcellulose) (HPC)) 96 % of control.
As for `CCC(CC)(C(N)=O)C(N)=O`, the T/C by setting is: under setting [2], 108 % of control; under setting [3], 100 % of control; under setting [4], 100 % of control.
Consider `O=C([O-])c1ccccc1[I+]c1ccccc1`, for which the T/C runs as follows: (endpoint: mean survival time, dose: 100.0 mg/kg/injection, schedule: Q01DX001 (ip), vehicle: Klucel (hydroxypropylcellulose) (HPC)) 107 % of control; under setting [5], 102 % of control; under setting [1], 103 % of control; (endpoint: mean survival time, dose: 200.0 mg/kg/injection, schedule: Q01DX001 (ip), vehicle: Klucel (hydroxypropylcellulose) (HPC)) 93 % of control; (endpoint: mean survival time, dose: 200.0 mg/kg/injection, schedule: Q01DX009 (ip), vehicle: saline sonified) 94 % of control; under setting [6], 101 % of control. Besides, the T/C was 111 % of control (endpoint: mean survival time, dose: 400.0 mg/kg/injection, schedule: Q01DX001 (ip), vehicle: Klucel (hydroxypropylcellulose) (HPC)); 102 % of control (endpoint: mean survival time, dose: 400.0 mg/kg/injection, schedule: Q01DX009 (ip), vehicle: saline sonified); 101 % of control under setting [7].
With `CC1=C(C2=C(C)C([N+](=O)[O-])(C(C)(C)C)C=C(C(C)(C)C)C2=O)C(=O)C(C(C)(C)C)=CC1([N+](=O)[O-])C(C)(C)C` (stereo not drawn), the T/C runs as follows: under setting [2], 90 % of control; under setting [3], 94 % of control; under setting [4], 90 % of control.
Regarding `C/C(=N/NC(=O)CC#N)c1ccccc1`, the T/C is, setting by setting: (endpoint: mean survival time, dose: 25.0 mg/kg/injection, schedule: Q01DX009 (ip), vehicle: saline with Tween-80) 98 % of control; under setting [8], 98 % of control; under setting [9], 98 % of control.
In the case of `CC(C)(C)OC(=O)NC(CO)C(=O)O` (stereo not drawn), the T/C reads like this: under setting [1], 92 % of control; under setting [6], 86 % of control; under setting [7], 94 % of control.
As to `CS/C([S-])=N/N=C\c1ccccn1.CS/C([S-])=N/N=C\c1ccccn1.[Ni+2]`, the T/C by setting is: under setting [1], 97 % of control; under setting [6], 96 % of control; under setting [7], 96 % of control.
As for `CN(C)C=Nc1ccc(Cl)c(Cl)c1`, the T/C under setting [10] is 98 % of control and the T/C under setting [11] was 92 % of control.
Consider `NC(N)=NC(N)=Nc1cnccn1`, for which the T/C was 91 % of control (endpoint: mean survival time, dose: 25.0 mg/kg/injection, schedule: Q01DX009 (ip), vehicle: saline sonified); 104 % of control under setting [10]; 97 % of control (endpoint: mean survival time, dose: 50.0 mg/kg/injection, schedule: Q01DX009 (ip), vehicle: saline sonified); 98 % of control under setting [11]; 95 % of control (endpoint: mean survival time, dose: 75.0 mg/kg/injection, schedule: Q01DX001 (ip), vehicle: saline); 95 % of control under setting [5]. Further, the T/C is 104 % of control under setting [12] and 93 % of control (endpoint: mean survival time, dose: 150.0 mg/kg/injection, schedule: Q01DX001 (ip), vehicle: saline).
On to `COc1ccccc1OC(=O)CCl`, for which the T/C was 111 % of control under setting [1], 101 % of control under setting [6] and 88 % of control under setting [7].
For `C=CCOC(c1ccc2c(c1)OCO2)C(C)Br` (stereo not drawn), the T/C by setting is: (endpoint: mean survival time, dose: 100.0 mg/kg/injection, schedule: Q01DX001 (ip), vehicle: saline with Tween-80) 94 % of control; (endpoint: mean survival time, dose: 200.0 mg/kg/injection, schedule: Q01DX001 (ip), vehicle: saline with Tween-80) 94 % of control; (endpoint: mean survival time, dose: 400.0 mg/kg/injection, schedule: Q01DX001 (ip), vehicle: saline with Tween-80) 94 % of control.
As to `CSc1nc(=O)n(C2OC(CO)C(O)C2O)nc1SCc1ccccc1` (stereo not drawn), the T/C by setting is: (endpoint: mean survival time, dose: 12.5 mg/kg/injection, schedule: Q01DX005 (ip), vehicle: distilled water + Tween-80) 94 % of control; (endpoint: mean survival time, dose: 25.0 mg/kg/injection, schedule: Q01DX005 (ip), vehicle: distilled water + Tween-80) 94 % of control; (endpoint: mean survival time, dose: 50.0 mg/kg/injection, schedule: Q01DX005 (ip), vehicle: distilled water + Tween-80) 92 % of control.
As for `CCCCCCCCCCC(CCCCCCCCCC)c1ccccc1`, the T/C reads like this: (endpoint: mean survival time, dose: 100.0 mg/kg/injection, schedule: Q01DX001 (ip), vehicle: saline sonified) 108 % of control; (endpoint: mean survival time, dose: 200.0 mg/kg/injection, schedule: Q01DX001 (ip), vehicle: saline sonified) 104 % of control; (endpoint: mean survival time, dose: 400.0 mg/kg/injection, schedule: Q01DX001 (ip), vehicle: saline sonified) 114 % of control.
`O=C(OCC1OC(n2cc[n+]([O-])nc2=O)C(OC(=O)c2ccccc2)C1OC(=O)c1ccccc1)c1ccccc1` (stereo not drawn): the T/C is, setting by setting: (endpoint: mean survival time, dose: 25.0 mg/kg/injection, schedule: Q01DX005 (ip), vehicle: other) 90 % of control; (endpoint: mean survival time, dose: 50.0 mg/kg/injection, schedule: Q01DX005 (ip), vehicle: other) 101 % of control; (endpoint: mean survival time, dose: 100.0 mg/kg/injection, schedule: Q01DX005 (ip), vehicle: other) 104 % of control; (endpoint: mean survival time, dose: 200.0 mg/kg/injection, schedule: Q01DX005 (ip), vehicle: other) 122 % of control; (endpoint: mean survival time, dose: 400.0 mg/kg/injection, schedule: Q01DX005 (ip), vehicle: other) 113 % of control.
`O=S(=O)(O)Cc1ccccc1O`: the T/C is 100 % of control (endpoint: mean survival time, dose: 100.0 mg/kg/injection, schedule: Q01DX001 (ip), vehicle: saline); 96 % of control under setting [12]; 100 % of control (endpoint: mean survival time, dose: 200.0 mg/kg/injection, schedule: Q01DX001 (ip), vehicle: saline); 95 % of control (endpoint: mean survival time, dose: 200.0 mg/kg/injection, schedule: Q04DX003 (ip), vehicle: saline); 102 % of control (endpoint: mean survival time, dose: 400.0 mg/kg/injection, schedule: Q01DX001 (ip), vehicle: saline); 89 % of control (endpoint: mean survival time, dose: 400.0 mg/kg/injection, schedule: Q04DX003 (ip), vehicle: saline).
Consider `COc1cccc(C2Nc3cc(Cl)ccc3S2)c1O` (stereo not drawn), for which the T/C (endpoint: mean survival time, dose: 75.0 mg/kg/injection, schedule: Q01DX009 (ip), vehicle: other) is 98 % of control; the T/C (endpoint: mean survival time, dose: 150.0 mg/kg/injection, schedule: Q01DX009 (ip), vehicle: other) is 96 % of control; the T/C (endpoint: mean survival time, dose: 300.0 mg/kg/injection, schedule: Q01DX009 (ip), vehicle: other) was 102 % of control.
`Cc1cc(OCCOC(=O)Nc2c(Cl)cccc2Cl)cc(C)c1Cl`: the T/C was 92 % of control under setting [8]; 100 % of control under setting [9]; 107 % of control (endpoint: mean survival time, dose: 200.0 mg/kg/injection, schedule: Q01DX009 (ip), vehicle: saline with Tween-80).
